pIC50: −log10 of the molar value.
Columns and labels:
Cannabinoid receptor 1 [1] = biological target: T1, Cannabinoid receptor 1 (Homo sapiens, UniProt P21554); type: functional, cell-based, CHO
Cannabinoid receptor 2 [2] = biological target: T2, Cannabinoid receptor 2 (Homo sapiens, UniProt P34972); experiment: Antagonist activity at CB2 receptor (unknown origin) stably expressed in CHO cells co-expressing co-expressing Ga15/16 assessed as calcium current at 10 uM after 45 mins by fluo-4 AM assay relative to basal control; type: functional, cell-based
T2 sequence (P34972 whole entry): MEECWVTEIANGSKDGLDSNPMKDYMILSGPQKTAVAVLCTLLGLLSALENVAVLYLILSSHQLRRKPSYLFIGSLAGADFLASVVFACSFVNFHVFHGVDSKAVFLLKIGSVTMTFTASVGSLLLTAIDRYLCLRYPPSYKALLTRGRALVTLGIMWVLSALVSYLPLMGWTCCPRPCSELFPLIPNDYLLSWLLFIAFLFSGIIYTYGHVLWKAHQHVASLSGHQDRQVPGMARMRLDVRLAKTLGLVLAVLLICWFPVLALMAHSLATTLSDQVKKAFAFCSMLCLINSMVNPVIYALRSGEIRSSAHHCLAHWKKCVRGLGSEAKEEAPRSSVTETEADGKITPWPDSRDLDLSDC

Cannabinoid receptor 1 [3] = biological target: T1, Cannabinoid receptor 1; details: CHO, at 10 µM
Cannabinoid receptor 2 [4] = biological target: T2, Cannabinoid receptor 2; experiment: Antagonist activity at CB2 receptor (unknown origin) stably expressed in CHO cells co-expressing co-expressing Ga15/16 assessed as calcium current after 45 mins by fluo-4 AM assay; type: functional, cell-based

T1 sequence (P21554 whole entry): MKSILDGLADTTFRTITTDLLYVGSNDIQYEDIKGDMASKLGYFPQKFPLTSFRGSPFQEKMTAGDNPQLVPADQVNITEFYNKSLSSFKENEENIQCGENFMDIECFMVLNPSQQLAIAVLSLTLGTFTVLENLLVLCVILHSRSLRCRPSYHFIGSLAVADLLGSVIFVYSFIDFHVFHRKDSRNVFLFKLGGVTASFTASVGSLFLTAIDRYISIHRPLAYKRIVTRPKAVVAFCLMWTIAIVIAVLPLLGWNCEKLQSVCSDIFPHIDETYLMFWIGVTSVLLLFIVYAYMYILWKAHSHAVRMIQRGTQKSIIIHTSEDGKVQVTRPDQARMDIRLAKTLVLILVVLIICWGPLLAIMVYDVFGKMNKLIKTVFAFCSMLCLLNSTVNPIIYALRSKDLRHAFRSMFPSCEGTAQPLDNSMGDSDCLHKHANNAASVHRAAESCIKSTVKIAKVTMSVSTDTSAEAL

SMILES	pIC50 (Cannabinoid receptor 1 [1])	inhibition (Cannabinoid receptor 2 [2])	inhibition (Cannabinoid receptor 1 [3])	pIC50 (Cannabinoid receptor 2 [4])
COc1ccc(-c2nn(C(=O)Nc3ccc(Cl)cc3)c(=O)n2-c2ccc(C)cc2)cc1	5.33	43.6%	90.5%	–
COc1ccc(-c2nn(C(=O)Nc3ccc(C)cc3)c(=O)n2-c2ccc(Cl)cc2)cc1	5.64	74%	96.6%	–
COc1ccc(-c2nn(C(=O)NC3CCCCC3)c(=O)n2-c2ccc(C)cc2)cc1	5.74	131%	98%	5.39
COc1ccc(-n2c(-c3ccc(Cl)cc3)nn(C(=O)NC3CCCCC3)c2=O)cc1	6.41	94%	98.6%	5.82
Cc1ccc(Cn2c(-c3ccc(C)cc3)nn(C(=O)Nc3ccc(Cl)cc3)c2=O)cc1	5.43	29.9%	89%	–
CCCCCOc1c(OC)ccc2cc(C(=O)NCc3ccc4c(c3)OCO4)c(=O)[nH]c12	–	130%	37.6%	–
COc1ccc(-c2nn(C(=O)NC3CCCCC3)c(=O)n2-c2ccc(Cl)cc2)cc1	6.06	124%	96.5%	5.22
Cc1ccc(Cn2c(-c3ccc(Cl)cc3)nn(C(=O)NC3CCCCC3)c2=O)cc1	–	87.7%	42.6%	5.71
COc1ccc(-n2c(-c3ccc(Cl)cc3)nn(C(=O)Nc3ccc(C)cc3)c2=O)cc1	5.07	85.6%	74.6%	4.70
Cc1ccc(-c2nn(C(=O)NC3CCCCC3)c(=O)n2-c2ccc(Cl)cc2)cc1	5.68	58.5%	98.2%	–
Cc1ccc(Cn2c(-c3ccc(C)cc3)nn(C(=O)NC3CCCCC3)c2=O)cc1	4.75	132%	60.9%	5.30
Cc1ccc(-n2c(-c3ccc(Cl)cc3)nn(C(=O)NC3CCCCC3)c2=O)cc1	6.65	46.4%	102%	–
Cc1ccc(NC(=O)n2nc(-c3ccc(C)cc3)n(-c3ccc(Cl)cc3)c2=O)cc1	6.02	–	91.9%	–
Cc1ccc(Cn2c(-c3ccc(Cl)cc3)nn(C(=O)Nc3ccc(C)cc3)c2=O)cc1	–	–	36.8%	–
